In US20260365637A1, “DUAL EZH2-HSP90 INHIBITORS” (TAIPEI MEDICAL UNIVERSITY, priority 2023, published 2026):
“Also recorded” adds a separate entry of the source.

What was measured:
EZH2 (Core Histone) = EZH2 (Core Histone) (Homo sapiens, UniProt Q15910); experiment: EZH2 inhibition assay (Reaction Biology Corporation); format: biochemical
Description: The EZH2 inhibitory ability of the synthesized adduct was assessed by Reaction Biology Corporation, Malvern, PA (http://www.reactionbiology.com).

Pt3R cells [1] = experiment: Cell viability / cytotoxicity of TMZ-resistant Pt3R cells (CCK8); format: cell-based, human
Pt3 cells = experiment: Cellular ROS assay (DHR, flow cytometry) in Pt3 cells; format: cell-based, human; conditions: 48 h, FIG. 7A
From the text: Dihydrorhodamine 123 (DHR; Thermo Fisher Scientific, Waltham, MA, USA) was used to label cellular ROS detected by flow cytometry, and the MitoSOX reagent (Thermo Fisher Scientific) was used to label mitochondrial ROS [55].
Treatment concentration of MPT1A059 was indicated.

Pt3R cells [2] = experiment: RNA-seq gene expression profiling in Pt3R cells; format: cell-based, human
Description: Pt3 GBM cells were isolated from a GBM patient as described in our previous study. Temozolomide (TMZ)-resistant phenotype of Pt3R cells had been validated previously. Pt3 cells were cultured in DMEM-supplemented with 10% fetal bovine serum, 100 μg/ml streptomycin and 100 μg/ml penicillin G. Pt3R cells were cultured in the presence of 100 μM of TMZ (MilliporeSigma Corporate, St. Louis, MO, USA).
RNA was isolated using the RNA extracting kit (Zymo Research, Irvine, CA, USA), and subjected to RNA-seq serviced by BIOTOOLS Co., Ltd (New Taipei City, Taiwan). Cell pellets were collected and subjected to proteomic analysis serviced by BIOTOOLS Co., Ltd. The comparison in gene expression between Pt3 and Pt3R was performed using RNA seq, and has been described previously.
To gain insights regarding the ability of dual inhibitor 7 to suppress the viability of TMZ-resistant GBM cells, RNA-seq to analyze gene expression profiles was performed.

Pt3R tumors = experiment: Growth of TMZ-resistant Pt3R tumors in mice; format: in vivo, NOD.CB17-Prkdc^scid/NCrCrl mice; conditions: 5 mg/kg twice weekly
Description: NOD.CB17-Prkdc^scid/NCrCrl mice (8-week-old) were purchased from BioLASCO Taiwan Co., Ltd. (Taipei, Taiwan). Pt3R cells (1×10^6) in […] DMEM were injected onto the backs of mice. After 10 days, tumor was touchable. Mice were injected with DMSO (the control group) or MPT1A059 (5 mg/kg) twice per week.
In-vivo anti-GBM efficacy of compound 7 was also evaluated in this study. For the in-vivo study, experimental NOD.CB17-Prkdc^scid/NCrCrl mice (8-week-old) were used and Pt3R cells (1×10^6) in […] DMEM were injected into the backs of mice. After 10 days, the tumor was detectable. Mice were injected with DMSO (the control group) or compound 7 (5 mg/kg) twice weekly. […] In a nutshell, the outcome of the in-vivo study ascertains that the remarkable in vitro anti-GBM activity profile of dual inhibitor 7 was translated to the in-vivo potential.

Chain of EZH2 (Core Histone) (Q15910 whole entry): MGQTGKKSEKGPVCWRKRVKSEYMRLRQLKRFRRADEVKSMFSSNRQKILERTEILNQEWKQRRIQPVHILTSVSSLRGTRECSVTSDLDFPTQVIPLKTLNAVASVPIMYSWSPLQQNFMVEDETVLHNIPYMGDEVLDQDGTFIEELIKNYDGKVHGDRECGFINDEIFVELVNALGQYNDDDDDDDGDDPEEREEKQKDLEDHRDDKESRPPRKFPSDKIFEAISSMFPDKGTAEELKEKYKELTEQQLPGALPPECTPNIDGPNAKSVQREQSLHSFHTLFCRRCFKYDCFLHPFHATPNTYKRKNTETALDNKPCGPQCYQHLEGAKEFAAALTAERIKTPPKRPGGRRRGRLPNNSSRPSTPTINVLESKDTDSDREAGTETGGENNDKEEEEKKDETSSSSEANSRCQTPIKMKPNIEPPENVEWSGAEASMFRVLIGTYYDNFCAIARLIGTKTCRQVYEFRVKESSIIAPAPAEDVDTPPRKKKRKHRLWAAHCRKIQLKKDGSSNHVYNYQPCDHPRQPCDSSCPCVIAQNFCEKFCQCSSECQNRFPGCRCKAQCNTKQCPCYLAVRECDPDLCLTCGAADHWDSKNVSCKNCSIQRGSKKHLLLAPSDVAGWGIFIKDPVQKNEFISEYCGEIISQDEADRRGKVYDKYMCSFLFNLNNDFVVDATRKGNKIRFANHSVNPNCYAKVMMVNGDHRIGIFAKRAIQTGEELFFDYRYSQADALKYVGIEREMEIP
Chain of EZH2 (Core Histone) (O75530 whole entry partner): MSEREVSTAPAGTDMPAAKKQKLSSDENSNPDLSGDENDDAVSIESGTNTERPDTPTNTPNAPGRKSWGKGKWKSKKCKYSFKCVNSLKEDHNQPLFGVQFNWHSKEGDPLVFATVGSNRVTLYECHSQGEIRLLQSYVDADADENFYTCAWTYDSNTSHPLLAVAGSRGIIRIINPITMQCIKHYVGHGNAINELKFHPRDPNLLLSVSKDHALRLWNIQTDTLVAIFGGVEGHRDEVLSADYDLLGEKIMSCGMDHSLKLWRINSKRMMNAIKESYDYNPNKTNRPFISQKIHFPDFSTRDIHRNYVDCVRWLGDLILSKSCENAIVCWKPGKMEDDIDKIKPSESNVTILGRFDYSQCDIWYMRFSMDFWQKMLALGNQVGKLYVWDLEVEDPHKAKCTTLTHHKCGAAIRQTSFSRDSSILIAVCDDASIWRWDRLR
Chain of EZH2 (Core Histone) (Q15022 whole entry partner): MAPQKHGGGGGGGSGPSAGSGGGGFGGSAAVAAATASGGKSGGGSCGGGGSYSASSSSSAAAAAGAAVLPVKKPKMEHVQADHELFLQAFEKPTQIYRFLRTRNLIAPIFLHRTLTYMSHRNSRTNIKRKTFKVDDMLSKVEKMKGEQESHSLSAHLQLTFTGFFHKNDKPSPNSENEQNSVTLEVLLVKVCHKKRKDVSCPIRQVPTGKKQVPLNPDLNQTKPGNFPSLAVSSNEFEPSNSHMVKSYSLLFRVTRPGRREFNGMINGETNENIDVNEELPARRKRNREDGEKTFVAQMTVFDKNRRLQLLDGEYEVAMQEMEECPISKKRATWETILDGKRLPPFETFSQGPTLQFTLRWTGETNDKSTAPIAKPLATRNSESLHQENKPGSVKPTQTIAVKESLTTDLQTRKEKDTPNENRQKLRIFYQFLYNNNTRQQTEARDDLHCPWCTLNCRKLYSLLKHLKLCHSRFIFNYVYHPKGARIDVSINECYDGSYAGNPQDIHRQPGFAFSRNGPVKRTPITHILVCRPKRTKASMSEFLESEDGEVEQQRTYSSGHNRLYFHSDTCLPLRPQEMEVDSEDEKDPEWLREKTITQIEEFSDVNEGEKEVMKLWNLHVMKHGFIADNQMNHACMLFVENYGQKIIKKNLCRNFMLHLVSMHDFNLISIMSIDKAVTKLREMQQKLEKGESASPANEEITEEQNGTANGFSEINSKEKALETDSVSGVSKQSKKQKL
Chain of EZH2 (Core Histone) (Q09028 whole entry partner): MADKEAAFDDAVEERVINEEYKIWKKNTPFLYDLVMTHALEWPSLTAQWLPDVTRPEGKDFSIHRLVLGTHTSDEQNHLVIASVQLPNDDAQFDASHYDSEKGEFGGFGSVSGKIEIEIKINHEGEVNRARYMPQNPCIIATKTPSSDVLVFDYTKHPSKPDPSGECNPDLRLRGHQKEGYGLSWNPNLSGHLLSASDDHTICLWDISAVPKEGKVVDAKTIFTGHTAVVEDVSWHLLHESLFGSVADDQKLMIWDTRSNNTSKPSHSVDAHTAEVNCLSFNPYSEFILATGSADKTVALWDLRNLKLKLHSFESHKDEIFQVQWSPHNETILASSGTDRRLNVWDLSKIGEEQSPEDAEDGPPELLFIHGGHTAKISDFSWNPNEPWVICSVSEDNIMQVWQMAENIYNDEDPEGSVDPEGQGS
Chain of EZH2 (Core Histone) (Q6ZN18 whole entry partner): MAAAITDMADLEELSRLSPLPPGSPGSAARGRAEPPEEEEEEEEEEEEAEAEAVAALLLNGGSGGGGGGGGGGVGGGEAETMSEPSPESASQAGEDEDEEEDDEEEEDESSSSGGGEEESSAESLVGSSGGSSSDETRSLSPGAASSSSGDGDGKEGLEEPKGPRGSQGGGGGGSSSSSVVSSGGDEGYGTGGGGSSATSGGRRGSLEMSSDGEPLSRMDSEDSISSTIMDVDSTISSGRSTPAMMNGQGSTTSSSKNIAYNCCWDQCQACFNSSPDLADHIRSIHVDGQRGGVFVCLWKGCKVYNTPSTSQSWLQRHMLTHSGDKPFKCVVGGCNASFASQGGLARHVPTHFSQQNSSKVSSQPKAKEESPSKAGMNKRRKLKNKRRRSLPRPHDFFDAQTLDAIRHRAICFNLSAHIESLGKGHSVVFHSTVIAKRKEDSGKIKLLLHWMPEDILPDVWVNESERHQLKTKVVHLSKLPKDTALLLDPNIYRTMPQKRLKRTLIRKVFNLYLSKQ

SMILES: CCN(c1cc(-c2cccc(N(C)C(=O)c3cc(C(C)C)c(O)cc3O)c2)cc(C(=O)NCc2c(C)cc(C)[nH]c2=O)c1C)C1CCOCC1 [Compound 7, 3′-(2,4-dihydroxy-5-isopropyl-N-methylbenzamido)-N-((4,6-dimethyl-2-oxo-1,2-dihydropyridin-3-yl)methyl)-5-(ethyl(tetrahydro-2H-pyran-4-yl)amino)-4-methyl-[1,1′-biphenyl]-3-carboxamide]
- IC50 (EZH2 (Core Histone)): 6.29 nM
- cell growth / viability inhibitory effect in words (Pt3R cells [1]): the only ones to exert cell viability inhibitory potential; also recorded: the most effective against the Pt3R cell lines
- IC50 (Pt3R cells [1]; read-out: Cell growth inhibitory effect IC50): 1010 nM
- ROS level (Pt3 cells): increased
- DNA repair capacity (Pt3R cells [2]): highly suppressed
- CENPF, CENPE, CENPA and CENPI (gene expression) (Pt3R cells [2]; FIG. 5C): decreased
- RBBP8 and BRCA1 gene expression (Pt3R cells [2]; FIG. 6A): suppressed
- expression of genes involved in processing DNA double-strand break and in homologous recombination (Pt3R cells [2]; FIG. 6A): decreased
- expression of genes regulating homologous recombination (TOP2A, RAD54B, RAD21, EME1, BRIP1) (Pt3R cells [2]; FIG. 6H): suppressed
- cell division and DNA repair gene sets (GSEA) (Pt3R cells [2]; GSEA): highly suppressed
- M phase/kinetochore/spindle-related gene expression (Pt3R cells [2]; RNA-seq): decreased
- apoptosis/necrosis-related gene expression (Pt3R cells [2]; RNA-seq): increased
- number of gene expressions decreased (Pt3R cells [2]; RNA-seq, 2 μM, 48 h): 498
- number of gene expressions increased (Pt3R cells [2]; RNA-seq, 2 μM, 48 h): 297
- tumor size and weight compared to DMSO-treated mice (Pt3R tumors; FIG. 8A): significantly smaller sizes and weights
- tumor growth (Pt3R tumors; FIG. 8B): tumor growth suppression ability
